In ChEMBL document CHEMBL1143658, “Discovery of 2-[(2,4-dichlorophenyl)amino]-N-[(tetrahydro- 2H-pyran-4-yl)methyl]-4-(trifluoromethyl)- 5-pyrimidinecarboxamide, a selective CB2 receptor agonist for the treatment of inflammatory pain” (J Med Chem, 2007):
Activity calls are given as the source filed them. The calls are words filed in the database; no cut-off is given here.

What was measured:
Cannabinoid receptor 2 [1] = target: T1, Cannabinoid receptor 2 (Homo sapiens, UniProt P34972); assay: Agonist activity at human recombinant CB2 receptor expressed in Saccharomyces cerevisiae cells; type: functional, cell-based
Cytochrome P450 1A2 = target: T2, Cytochrome P450 1A2 (Homo sapiens, UniProt P05177); assay: Inhibition of human CYP1A2; type: ADME
T2 sequence (P05177 whole entry): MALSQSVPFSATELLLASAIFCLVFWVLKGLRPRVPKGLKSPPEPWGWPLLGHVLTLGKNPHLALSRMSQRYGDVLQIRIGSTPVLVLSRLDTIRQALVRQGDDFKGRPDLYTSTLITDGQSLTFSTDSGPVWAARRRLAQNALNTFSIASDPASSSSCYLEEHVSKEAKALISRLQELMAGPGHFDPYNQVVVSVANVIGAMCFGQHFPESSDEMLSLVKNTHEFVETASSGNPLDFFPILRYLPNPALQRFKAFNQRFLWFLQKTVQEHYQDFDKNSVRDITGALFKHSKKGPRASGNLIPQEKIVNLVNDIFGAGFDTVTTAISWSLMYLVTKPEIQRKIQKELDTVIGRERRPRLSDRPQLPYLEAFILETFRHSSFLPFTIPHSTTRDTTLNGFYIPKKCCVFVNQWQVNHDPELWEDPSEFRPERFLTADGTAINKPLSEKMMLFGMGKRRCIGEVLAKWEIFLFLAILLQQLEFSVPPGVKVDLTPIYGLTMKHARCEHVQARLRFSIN

Cytochrome P450 2C19 = Cytochrome P450 2C19 (Homo sapiens, UniProt P33261); assay: Inhibition of human CYP2C19; type: ADME
Cytochrome P450 2C9 = Cytochrome P450 2C9 (Homo sapiens, UniProt P11712); assay: Inhibition of human CYP2C9; type: ADME
Cytochrome P450 2D6 = Cytochrome P450 2D6 (Homo sapiens, UniProt P10635); assay: Inhibition of human CYP2D6; type: ADME
Cytochrome P450 3A4 = Cytochrome P450 3A4 (Homo sapiens, UniProt P08684); assay: Inhibition of human CYP3A4
Cannabinoid receptor 2 [2] = target: T1, Cannabinoid receptor 2; assay: Efficacy at human recombinant CB2 receptor expressed in Saccharomyces cerevisiae cells relative to HU210; type: cell-based
Liver microsomes = assay: Intrinsic clearance in rat liver microsome; type: ADME
Rattus norvegicus = assay: Reversal of antihypersensitivity to pain in rat FCA model of inflammatory pain at 15 mg/kg, ip after 1 hr; type: functional, organism-based; design: dose 15 mg/kg

Cytochrome P450 3A4, sequence (P08684 whole entry): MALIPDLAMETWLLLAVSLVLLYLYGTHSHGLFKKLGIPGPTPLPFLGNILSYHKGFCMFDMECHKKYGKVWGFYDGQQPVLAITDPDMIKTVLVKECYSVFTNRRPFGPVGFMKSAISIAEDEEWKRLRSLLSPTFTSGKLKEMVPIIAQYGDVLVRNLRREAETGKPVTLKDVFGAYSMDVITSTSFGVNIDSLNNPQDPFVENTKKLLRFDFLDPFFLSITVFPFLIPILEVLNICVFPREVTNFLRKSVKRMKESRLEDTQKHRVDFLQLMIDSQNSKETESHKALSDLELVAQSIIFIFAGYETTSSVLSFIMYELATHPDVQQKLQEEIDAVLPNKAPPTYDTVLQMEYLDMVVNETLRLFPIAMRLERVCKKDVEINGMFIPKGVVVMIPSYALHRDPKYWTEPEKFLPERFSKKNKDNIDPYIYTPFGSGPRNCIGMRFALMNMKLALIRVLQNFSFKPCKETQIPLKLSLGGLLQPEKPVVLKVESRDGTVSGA
Cytochrome P450 2C19, sequence (P33261 whole entry): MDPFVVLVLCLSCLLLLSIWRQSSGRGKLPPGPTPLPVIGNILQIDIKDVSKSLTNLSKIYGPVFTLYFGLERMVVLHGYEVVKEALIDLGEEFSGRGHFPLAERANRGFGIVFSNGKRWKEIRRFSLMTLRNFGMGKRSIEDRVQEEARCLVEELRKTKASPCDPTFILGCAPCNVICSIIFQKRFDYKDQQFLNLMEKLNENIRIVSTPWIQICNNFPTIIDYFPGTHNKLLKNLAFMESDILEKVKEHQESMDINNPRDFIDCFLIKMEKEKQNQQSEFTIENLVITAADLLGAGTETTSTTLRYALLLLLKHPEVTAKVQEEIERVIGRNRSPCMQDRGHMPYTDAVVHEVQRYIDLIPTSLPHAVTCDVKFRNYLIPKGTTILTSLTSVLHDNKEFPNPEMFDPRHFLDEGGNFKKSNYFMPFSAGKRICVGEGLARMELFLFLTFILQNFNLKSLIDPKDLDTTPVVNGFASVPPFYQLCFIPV
Cytochrome P450 2C9, sequence (P11712 whole entry): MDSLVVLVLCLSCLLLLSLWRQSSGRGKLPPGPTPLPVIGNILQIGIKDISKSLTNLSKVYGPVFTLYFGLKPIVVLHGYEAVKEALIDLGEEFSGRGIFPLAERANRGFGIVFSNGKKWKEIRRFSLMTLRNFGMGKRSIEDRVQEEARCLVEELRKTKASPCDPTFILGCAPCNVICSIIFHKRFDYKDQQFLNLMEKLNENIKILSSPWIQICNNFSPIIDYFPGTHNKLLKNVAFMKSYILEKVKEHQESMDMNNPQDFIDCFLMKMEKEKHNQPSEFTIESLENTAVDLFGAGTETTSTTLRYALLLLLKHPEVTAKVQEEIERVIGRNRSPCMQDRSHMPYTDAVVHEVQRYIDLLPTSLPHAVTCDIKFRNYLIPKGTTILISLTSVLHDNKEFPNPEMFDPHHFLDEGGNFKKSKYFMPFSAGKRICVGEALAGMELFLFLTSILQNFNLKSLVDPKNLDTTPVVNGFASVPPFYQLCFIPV
Cytochrome P450 2D6, sequence (P10635 whole entry): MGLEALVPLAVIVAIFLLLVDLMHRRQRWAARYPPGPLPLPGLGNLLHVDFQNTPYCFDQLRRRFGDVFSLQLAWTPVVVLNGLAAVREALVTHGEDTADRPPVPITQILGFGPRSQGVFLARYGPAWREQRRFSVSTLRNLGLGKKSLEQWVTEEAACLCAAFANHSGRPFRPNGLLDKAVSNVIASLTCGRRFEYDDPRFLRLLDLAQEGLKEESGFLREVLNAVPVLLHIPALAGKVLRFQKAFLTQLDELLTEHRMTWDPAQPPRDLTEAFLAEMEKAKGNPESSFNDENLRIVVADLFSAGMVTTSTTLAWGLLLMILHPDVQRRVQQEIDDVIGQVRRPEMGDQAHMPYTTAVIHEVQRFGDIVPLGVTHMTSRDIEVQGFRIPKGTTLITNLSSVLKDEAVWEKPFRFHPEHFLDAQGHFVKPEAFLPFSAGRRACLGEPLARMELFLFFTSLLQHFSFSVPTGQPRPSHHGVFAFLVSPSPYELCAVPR
T1 sequence (P34972 whole entry): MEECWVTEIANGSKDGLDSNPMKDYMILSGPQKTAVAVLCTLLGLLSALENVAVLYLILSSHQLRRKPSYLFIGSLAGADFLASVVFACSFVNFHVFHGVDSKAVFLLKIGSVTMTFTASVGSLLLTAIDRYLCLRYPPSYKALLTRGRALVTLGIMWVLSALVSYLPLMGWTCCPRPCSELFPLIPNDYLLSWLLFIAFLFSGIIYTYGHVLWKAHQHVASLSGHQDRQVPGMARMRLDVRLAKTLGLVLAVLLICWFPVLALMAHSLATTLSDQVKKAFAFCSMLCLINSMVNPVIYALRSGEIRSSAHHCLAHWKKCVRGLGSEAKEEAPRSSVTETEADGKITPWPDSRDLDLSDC

Structure (SMILES)	EC50 (Cannabinoid receptor 2 [1]) [nM]	Efficacy (Cannabinoid receptor 2 [2]) [%]	also measured
O=C(NCc1ccc(F)cc1)c1cnc(Nc2cccc(Cl)c2)nc1C(F)(F)F	63	78	IC50 (Cytochrome P450 1A2): 8 µM; IC50 (Cytochrome P450 2C19): 12 µM; IC50 (Cytochrome P450 2C9): 8 µM; IC50 (Cytochrome P450 2D6): 1.5 µM; IC50 (Cytochrome P450 3A4): 5 µM
O=C(NCc1ccccc1)c1cnc(Nc2cccc(Br)c2)nc1C(F)(F)F	230	81	–
O=C(NCc1ccccc1)c1cnc(Nc2cccc(F)c2)nc1C(F)(F)F	310	88	–
CC(=O)Nc1ccc(Nc2ncc(C(=O)NCc3ccccc3)c(C(F)(F)F)n2)cc1	> 25000	–	–
N#Cc1ccc(CNC(=O)c2cnc(Nc3cccc(Cl)c3)nc2C(F)(F)F)cc1	220	69	–
O=C(NCC1(O)CCCCC1)c1cnc(Nc2cccc(Cl)c2)nc1C(F)(F)F	125	83	IC50 (Cytochrome P450 1A2): 11 µM; IC50 (Cytochrome P450 2C19): 17 µM; IC50 (Cytochrome P450 2D6): 13 µM
COc1cccc(CNC(=O)c2cnc(Nc3cccc(Cl)c3)nc2C(F)(F)F)c1	25000	20	–
O=C(NCc1cccc(Cl)c1)c1cnc(Nc2cccc(Cl)c2)nc1C(F)(F)F	1580	18	–
O=C(NCc1ccccc1)c1cnc(Nc2ccccc2)nc1C(F)(F)F	400	45	CL (Liver microsomes): < 0.5 mL/min/g
O=C(NCC1CCOCC1)c1cnc(Nc2cc(F)cc(F)c2)nc1C(F)(F)F	125	91	IC50 (Cytochrome P450 1A2): 24 µM; IC50 (Cytochrome P450 2C19): 91 µM; IC50 (Cytochrome P450 2C9): > 100 µM; IC50 (Cytochrome P450 2D6): 45 µM; IC50 (Cytochrome P450 3A4): > 100 µM
COc1ccccc1CNC(=O)c1cnc(Nc2cccc(Cl)c2)nc1C(F)(F)F	> 25000	78	–
N#Cc1cccc(Nc2ncc(C(=O)NCc3ccccc3)c(C(F)(F)F)n2)c1	455	76	–
COc1ccc(C(=O)c2c(C)n(CCN3CCOCC3)c3cc(I)ccc23)cc1	–	–	Activity (Rattus norvegicus): Active
O=C(NCc1ccccc1Cl)c1cnc(Nc2cccc(Cl)c2)nc1C(F)(F)F	10000	21	–
CC(C)(C)c1ccc(Nc2ncc(C(=O)NCc3ccccc3)c(C(F)(F)F)n2)cc1	> 25000	–	–
O=C(NCC1CCOCC1)c1cnc(Nc2cc(Cl)ccc2F)nc1C(F)(F)F	125	86	IC50 (Cytochrome P450 1A2): 26 µM; IC50 (Cytochrome P450 2C19): > 100 µM; IC50 (Cytochrome P450 2C9): 37 µM; IC50 (Cytochrome P450 2D6): > 100 µM; IC50 (Cytochrome P450 3A4): 68 µM
O=C(NCC1CC1)c1cnc(Nc2cccc(Cl)c2)nc1C(F)(F)F	80	79	–
COc1cccc(Nc2ncc(C(=O)NCc3ccccc3)c(C(F)(F)F)n2)c1	465	76	–
O=C(NCC1CCOCC1)c1cnc(Nc2cccc(Cl)c2)nc1C(F)(F)F	50	89	IC50 (Cytochrome P450 1A2): > 100 µM; IC50 (Cytochrome P450 2C19): 56 µM; IC50 (Cytochrome P450 2C9): 18 µM; IC50 (Cytochrome P450 2D6): 51 µM; IC50 (Cytochrome P450 3A4): 51 µM
O=C(NCC1CCC1)c1cnc(Nc2cccc(Cl)c2)nc1C(F)(F)F	40	82	IC50 (Cytochrome P450 1A2): 8 µM; IC50 (Cytochrome P450 2C19): 8 µM; IC50 (Cytochrome P450 2C9): 3 µM; IC50 (Cytochrome P450 2D6): 22 µM; IC50 (Cytochrome P450 3A4): 75 µM
O=C(NCC1CCNCC1)c1cnc(Nc2cccc(Cl)c2)nc1C(F)(F)F	5000	46	–
COc1ccc(Nc2ncc(C(=O)NCc3ccccc3)c(C(F)(F)F)n2)cc1	200	32	–
O=C(NCc1ccc(Cl)cc1)c1cnc(Nc2cccc(Cl)c2)nc1C(F)(F)F	400	65	–
